Data taken from patent US9539260B2, “Dihydro-benzo-oxazine and dihydro-pyrido-oxazine derivatives” (Novartis AG, priority 2012, dated 2017).

Experiments:
PI3K delta = PI3K delta (Homo sapiens (Human), UniProt O00329); test: Enzymatic PI3K delta isoform inhibition (lipid kinase activity, Kinase-Glo luminescence); type: biochemical; settings: Enzymatic assay
In short: (§1)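 ATP-depletion format: 10 nM PI3K with 5 μg/mL phosphatidylinositol and 2 μM ATP, run to ~50% ATP consumption, then Kinase-Glo added and remaining ATP read by luminescence after 5 min. IC50 from 4-parameter logistic fit, typically over 8 concentrations 10–0.003 μM.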

[1] = tested on: rat B cells derived from whole blood; test: Determination of rat B cell activation in whole blood (CD86 upregulation after anti-IgM and rIL-4); type: cell-based; settings: anti-IgM + rIL-4 stimulation, CD86 on CD45RA+ B cells, read-out: RWB/IC50 CD86
Experimental: 2.3 Determination of Rat B Cell Activation
PI3Kδ has been recognized to modulate B cell function when cells are stimulated through the B cell receptor (BCR) (Okkenhaug et al. Science 297:1031 (2002). For assessing the inhibitory property of compounds on B cell activation, the upregulation of activation markers CD86 on rat B cells derived from whole blood is measured after stimulation with anti-IgM and recombinant IL-4. The CD86 molecule (also known as B7-2) is primarily expressed on antigen-presenting cells, including B cells. Resting B cells express CD86 at low levels, but upregulate it following stimulation of e.g. the BCR or IL-4 receptor. CD86 on a B cell interacts with CD28 on T cells. This interaction is required for optimal T cell activation and for the generation of an optimal IgG1 response (Carreno et al. Annu Rev Immunol. 20:29 (2002)).
Whole blood was collected from the abdominal aorta adult male Lewis rats (LEW/HanHsd) oby using a 10 ml syringe with hypodermic needle pre-coated with sodium heparin. Blood was transferred into 50 ml Falcon tubes and the anticoagulant concentration was adjusted to 100 U/ml.
For assessment of the in vitro effects of immunosuppressive drugs, heparinized blood was prediluted to 50% with medium. As medium served DMEM high glucose (Animed cat#1-26F01-I) supplemented with 100 U/ml penicillin, […], 2 mM L-glutamin, 50 mg/ml dextran 40 and 5% fetal calf serum (FCS, Fetaclone I, Gibco #10270-106). Then, 190 μl prediluted blood was spiked with 10 μl of pre-diluted test compound in 96 well U-bottomed microtiter plates (Nunc) resulting in a 3-fold serial dilution with a concentration range from 20 to 0.0003 μM. Control wells were pretreated with DMSO to obtain a final concentration of 0.5% DMSO. Cultures were set up in duplicates, mixed well by agitation on a plate shaker (Heidolph Titramax 101; 30 sec, speed 900), pipetting up and down and agitated on the plate shaker again. Cultures were incubated at 37° C., 5% CO2 for 1 hr. Then, 20 μl of polyclonal goat anti-rat IgM Ab (Serotec, cat#302001) and 10 μl of diluted recombinant rIL-4 (Immunotools #340085) were added to obtain final concentrations of 30 μg/ml and 5 ng/ml, respectively. Plates were mixed by agitation on a plate shaker as above and incubated for 24 hrs at 37° C., 5% CO2.
After incubation, 15 μl of a 25 mM EDTA solution was added per well and shaken for 15 min to detach adherent cells. For analysis of surface activation markers, samples were then stained with PE-Cy5-labeled anti-ratCD45RA (BD cat#557015) to allow gating on B cells in FACS analysis. In addition, samples were stained with PE-labeled anti-rat CD86 (BD cat#551396). All staining procedures were performed at rt for 30 min in the dark. After incubation, samples were transferred to 96-deep well V-bottomed microtiter plates (Corning #396096) containing 2 ml/well of BD Lysing Solution (BD #349202). After lysis of erythrocytes samples were washed with 2 ml of CellWASH (BD #349524). Data was acquired on an LSRII or FACScalibur flow cytometer (BD Biosciences) using Cellquest Plus or DIVA (version 6.1.1) software, respectively. Lymphocytes were gated in the FSC/SSC dot blot according to size and granularity and further analyzed for expression of CD45RA and activation markers. Data were calculated from dot blots or histograms as percentage of cells positively stained for activation markers within the CD45RA+ population.
The percentage inhibition of B cell activation after exposure to drug was calculated by the following formula: […]
ORIGIN 7 software (OriginLab Corporation, Northampton, Mass.) was used for non-linear regression curve fitting.

PI3K alpha = PI3K alpha (Homo sapiens (Human), UniProt P42336); test: Enzymatic PI3K alpha isoform inhibition (lipid kinase activity, Kinase-Glo luminescence); type: biochemical; settings: Enzymatic assay
In short: as §1

[2] = target: myristoylated catalytic subunit of human PI3K delta in Rat-1 cells (Homo sapiens (Human), UniProt O00329); test: PI3K-mediated Akt 1/2 (S473) phosphorylation in Rat-1 cells, PI3K delta; type: cell-based; settings: Rat-1 cells overexpressing myristoylated human PI3K delta; p-Akt (S473) AlphaScreen SureFire; read-out: Cell PI3Kδ/ IC50
Experimental: 2.1 Phosphoinositide-3 Kinase (PI3K)-Mediated Akt 1/2 (S473) Phosphorylation in Rat-1 Cells
Rat-1 cells stably overexpressing a myristoylated form of the catalytic subunit of human phosphoinositide-3 kinase (PI3K) alpha, beta or delta were plated in 384-well plates at a density of 7500 (PI3K alpha), 6200 (PI3K beta), or 4000 (PI3K delta) cells in 30 ul complete growth medium (Dulbecco's modified Eagle's medium (DMEM high glucose) supplemented with 10% (v/v) fetal bovine serum, 1% (v/v) MEM non essential amino acids, 10 mM HEPES, 2 mM L-glutamine, 10 μg/mL puromycin and 1% (v/v) Penicillin/Streptomycin) and were incubated at […]/5% CO2/95% humidity for 24 h. Compounds were diluted in 384-well compound plates to obtain 8-point serial dilutions for 40 test compounds in 90% DMSO, as well as 4 reference compounds plus 16 high controls and 16 low (inhibited) controls. Predilution plates were prepared by dispensing pipetting 250 nl of compound solutions into 384-well polypropylen plates using a Hummingwell nanoliter dispensor. Compounds were prediluted by the addition of 49.75 ul complete growth medium. 10 ul of prediluted compound solution were transferred to the cell plate using a 384-well pipettor, resulting in a final DMSO concentration of 0.11%.
Cells were incubated for 1 h at […]/5% CO2/95% humidity. The supernatant was removed, the cells were lysed in 20 ul of lysis buffer for AlphaScreen® SureFire® detection.
For detection of p-AKT(Ser473), the SureFire® p-Akt 1/2 (Ser473) Assay Kit (PerkinElmer, U.S.A) was used. 5 ul of cell lysate was transferred to 384-well low volume Proxiplates for detection using a 384-well pipettor. Addition of AlphaScreen® SureFire® reagents was done according to the manufacturer's protocol. First, 5 ul of reaction buffer plus activation buffer mix containing AlphaScreen® acceptor beads was added, the plate was sealed, and incubated on a plate shaker for 2 hours at room temperature. Second, 2 ul of dilution buffer containing AlphaScreen® donor beads was added, and the plate was incubated on plate shaker as above for a further 2 hours. The plate was read on an AlphaScreen® compatible plate reader, using standard AlphaScreen® settings.

Chain of myristoylated catalytic subunit of human PI3K delta in Rat-1 cells (O00329 whole entry): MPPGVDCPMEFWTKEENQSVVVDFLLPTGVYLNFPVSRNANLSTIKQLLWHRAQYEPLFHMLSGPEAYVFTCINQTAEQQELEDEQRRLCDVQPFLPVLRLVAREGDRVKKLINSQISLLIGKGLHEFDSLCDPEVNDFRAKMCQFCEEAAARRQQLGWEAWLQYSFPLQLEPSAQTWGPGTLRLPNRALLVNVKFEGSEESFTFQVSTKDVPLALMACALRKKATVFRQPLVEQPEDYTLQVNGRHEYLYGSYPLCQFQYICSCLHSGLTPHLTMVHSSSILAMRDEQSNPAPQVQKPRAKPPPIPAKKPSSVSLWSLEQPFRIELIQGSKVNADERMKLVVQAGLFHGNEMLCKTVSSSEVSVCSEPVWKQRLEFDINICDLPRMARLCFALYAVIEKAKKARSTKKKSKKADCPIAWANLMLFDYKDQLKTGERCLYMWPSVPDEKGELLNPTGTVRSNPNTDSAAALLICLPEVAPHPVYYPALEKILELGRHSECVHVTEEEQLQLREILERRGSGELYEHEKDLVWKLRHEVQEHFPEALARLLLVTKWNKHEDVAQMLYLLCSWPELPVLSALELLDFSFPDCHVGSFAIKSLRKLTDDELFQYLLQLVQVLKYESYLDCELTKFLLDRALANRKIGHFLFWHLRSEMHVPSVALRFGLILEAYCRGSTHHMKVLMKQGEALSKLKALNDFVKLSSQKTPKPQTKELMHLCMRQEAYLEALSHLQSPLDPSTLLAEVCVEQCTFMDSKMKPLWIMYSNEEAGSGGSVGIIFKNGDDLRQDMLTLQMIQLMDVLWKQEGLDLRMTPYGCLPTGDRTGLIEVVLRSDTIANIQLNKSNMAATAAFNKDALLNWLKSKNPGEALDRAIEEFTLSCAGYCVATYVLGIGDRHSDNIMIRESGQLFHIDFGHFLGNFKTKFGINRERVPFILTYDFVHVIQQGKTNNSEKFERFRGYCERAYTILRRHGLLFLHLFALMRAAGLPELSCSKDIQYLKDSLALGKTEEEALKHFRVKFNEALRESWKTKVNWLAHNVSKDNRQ
Chain of PI3K delta (O00329 other isoform, or with tags, fused parts or gaps linker GGGGGG): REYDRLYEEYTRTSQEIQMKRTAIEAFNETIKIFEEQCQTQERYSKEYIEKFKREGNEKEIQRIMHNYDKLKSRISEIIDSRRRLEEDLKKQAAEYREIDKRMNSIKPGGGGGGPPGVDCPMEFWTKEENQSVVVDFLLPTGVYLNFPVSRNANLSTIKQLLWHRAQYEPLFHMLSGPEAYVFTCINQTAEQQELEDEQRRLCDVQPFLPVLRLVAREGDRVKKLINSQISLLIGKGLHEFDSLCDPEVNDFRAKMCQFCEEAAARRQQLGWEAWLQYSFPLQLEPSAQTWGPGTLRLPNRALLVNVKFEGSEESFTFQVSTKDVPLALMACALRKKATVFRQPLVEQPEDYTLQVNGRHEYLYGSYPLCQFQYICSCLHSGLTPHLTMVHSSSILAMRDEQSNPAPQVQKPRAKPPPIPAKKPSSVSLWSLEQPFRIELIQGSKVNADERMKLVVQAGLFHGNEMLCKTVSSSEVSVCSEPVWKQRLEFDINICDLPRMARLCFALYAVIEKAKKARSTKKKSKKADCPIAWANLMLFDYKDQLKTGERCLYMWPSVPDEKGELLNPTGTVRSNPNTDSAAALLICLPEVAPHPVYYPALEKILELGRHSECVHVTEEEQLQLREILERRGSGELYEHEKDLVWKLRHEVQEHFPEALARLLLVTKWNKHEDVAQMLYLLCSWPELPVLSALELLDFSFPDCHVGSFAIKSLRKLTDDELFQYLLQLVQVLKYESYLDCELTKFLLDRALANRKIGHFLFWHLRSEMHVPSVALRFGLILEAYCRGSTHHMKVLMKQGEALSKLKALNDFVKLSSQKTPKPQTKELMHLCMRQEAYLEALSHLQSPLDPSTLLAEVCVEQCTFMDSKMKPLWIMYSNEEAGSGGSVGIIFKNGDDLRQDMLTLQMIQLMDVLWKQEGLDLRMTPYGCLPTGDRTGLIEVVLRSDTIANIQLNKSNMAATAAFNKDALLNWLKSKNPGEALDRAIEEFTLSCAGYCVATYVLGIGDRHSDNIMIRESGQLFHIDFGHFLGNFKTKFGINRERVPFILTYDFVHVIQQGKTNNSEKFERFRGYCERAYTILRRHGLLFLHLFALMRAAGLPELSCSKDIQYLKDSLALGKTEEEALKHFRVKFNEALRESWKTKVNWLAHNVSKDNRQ
Chain of PI3K alpha (P42336 other isoform, or with tags, fused parts or gaps): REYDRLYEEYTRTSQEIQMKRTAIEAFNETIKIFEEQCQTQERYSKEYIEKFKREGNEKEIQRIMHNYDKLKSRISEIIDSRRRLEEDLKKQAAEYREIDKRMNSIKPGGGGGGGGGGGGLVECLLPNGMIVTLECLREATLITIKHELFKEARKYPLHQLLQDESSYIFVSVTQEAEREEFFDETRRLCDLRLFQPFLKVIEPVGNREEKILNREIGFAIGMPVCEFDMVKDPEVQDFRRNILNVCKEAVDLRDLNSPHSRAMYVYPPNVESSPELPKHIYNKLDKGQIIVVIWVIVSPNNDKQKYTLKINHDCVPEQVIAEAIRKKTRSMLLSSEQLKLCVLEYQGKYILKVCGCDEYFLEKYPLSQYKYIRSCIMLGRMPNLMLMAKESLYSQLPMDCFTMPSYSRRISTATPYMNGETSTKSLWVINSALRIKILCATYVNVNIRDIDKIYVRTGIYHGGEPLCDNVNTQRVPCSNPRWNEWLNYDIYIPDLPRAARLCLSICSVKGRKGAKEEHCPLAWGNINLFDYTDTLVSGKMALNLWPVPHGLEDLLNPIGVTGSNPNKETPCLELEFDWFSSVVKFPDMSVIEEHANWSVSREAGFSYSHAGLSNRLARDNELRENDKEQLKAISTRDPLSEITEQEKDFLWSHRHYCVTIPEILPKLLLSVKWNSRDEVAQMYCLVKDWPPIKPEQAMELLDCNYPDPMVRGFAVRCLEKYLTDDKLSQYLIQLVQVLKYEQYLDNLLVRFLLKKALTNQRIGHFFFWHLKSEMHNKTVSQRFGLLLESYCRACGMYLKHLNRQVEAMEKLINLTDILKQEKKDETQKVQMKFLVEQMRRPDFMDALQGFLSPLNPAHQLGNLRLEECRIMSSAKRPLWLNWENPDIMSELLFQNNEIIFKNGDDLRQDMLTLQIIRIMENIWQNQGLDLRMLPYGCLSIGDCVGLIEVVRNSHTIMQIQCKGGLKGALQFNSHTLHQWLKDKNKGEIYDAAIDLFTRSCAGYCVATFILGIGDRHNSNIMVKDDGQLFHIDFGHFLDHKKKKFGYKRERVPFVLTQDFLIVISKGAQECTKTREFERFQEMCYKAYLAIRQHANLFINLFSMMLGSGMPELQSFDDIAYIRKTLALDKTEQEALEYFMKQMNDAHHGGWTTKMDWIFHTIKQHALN

COc1ncc(N2CCOc3ccc(O[C@H]4CCN(C(=O)C5CCOCC5)C4)cc32)cc1C [Example A1, (S)-(3-((4-(6-methoxy-5-methylpyridin-3-yl)-3,4-dihydro-2H-benzo[b][1,4]oxazin-6-yl)oxy)pyrrolidin-1-yl)(tetrahydro-2H-pyran-4-yl)methanone] showed an IC50 (PI3K delta) of 6 nM, an IC50 [1] of 37 nM and an IC50 (PI3K alpha) of 322 nM. For the same compound, the IC50 [2] was 43 nM.

COc1ncc(N2CCOc3cnc(O[C@H]4CCN(C(=O)C5CCS(=O)(=O)CC5)C4)cc32)cc1C(F)F [Example F7, {(S)-3-[1-(5-Difluoromethyl-6-methoxy-pyridin-3-yl)-2,3-dihydro-1H-pyrido[3,4-b][1,4]oxazin-7-yloxy]-pyrrolidin-1-yl}-(1,1-dioxo-hexahydro-1lambda*6*-thiopyran-4-yl)-methanone] gave an IC50 (PI3K delta) of under 3 nM, an IC50 [1] of 40 nM and an IC50 (PI3K alpha) of 71 nM. For the same compound, the IC50 [2] was 18 nM.

COc1ncc(N2CCOc3ccc(O[C@H]4CCN(C(=O)C5CCOCC5)C4)cc32)cc1C#N [Example C1, 2-Methoxy-5-{6-[(S)-1-(tetrahydro-pyran-4-carbonyl)-pyrrolidin-3-yloxy]-2,3-dihydro-benzo[1,4]oxazin-4-yl}-nicotinonitrile] gave an IC50 (PI3K delta) of 19 nM, an IC50 [1] of 68 nM and an IC50 (PI3K alpha) of 300 nM. For the same compound, the IC50 [2] was 81 nM.

COc1ncc(N2CCOc3cnc(O[C@H]4CCN(C(=O)C5CCS(=O)(=O)CC5)C4)cc32)cc1C [Example F1, (1,1-Dioxo-hexahydro-1lambda*6*-thiopyran-4-yl)-{(S)-3-[1-(6-methoxy-5-methyl-pyridin-3-yl)-2,3-dihydro-1H-pyrido[3,4-b][1,4]oxazin-7-yloxy]-pyrrolidin-1-yl}-methanone] gave an IC50 [1] of 7 nM.

COc1ncc(N2CCOc3cnc(O[C@H]4CCN(C(=O)c5cn(C)cn5)C4)cc32)cc1F [Example F3, {(S)-3-[1-(5-Fluoro-6-methoxy-pyridin-3-yl)-2,3-dihydro-1H-pyrido[3,4-b][1,4]oxazin-7-yloxy]-pyrrolidin-1-yl}-(1-methyl-1H-imidazol-4-yl)-methanone] showed an IC50 (PI3K delta) of 6 nM, an IC50 (PI3K alpha) of 337 nM and an IC50 [2] of 50 nM.

COc1ncc(N2CCOc3ccc(O[C@H]4CCN(C(=O)c5cn(C)cn5)C4)cc32)cc1C#N [Example D1, (S)-2-methoxy-5-(6-((1-(1-methyl-1H-imidazole-4-carbonyl)pyrrolidin-3-yl)oxy)-2H-benzo[b][1,4]oxazin-4(3H)-yl)nicotinonitrile] showed an IC50 (PI3K delta) of 5 nM, an IC50 [1] of 84 nM and an IC50 [2] of 147 nM.

In the case of CCC(=O)N1CC[C@H](Oc2ccc3c(c2)N(c2cnc(S(C)(=O)=O)c(C)c2)CCO3)C1 [Example B97, 1-{(S)-3-[4-(6-Methanesulfonyl-5-methyl-pyridin-3-yl)-3,4-dihydro-2H-benzo[1,4]oxazin-6-yloxy]-pyrrolidin-1-yl}-propan-1-one], the IC50 (PI3K delta) is reported as 21.5 nM and the IC50 (PI3K alpha) is reported as 476 nM.

In the case of Cn1cnc(C(=O)N2CC[C@H](Oc3ccc4c(c3)N(c3cnc(S(C)(=O)=O)c(C(F)F)c3)CCO4)C2)c1 [Example B74], the IC50 (PI3K delta) is reported as 9 nM and the IC50 (PI3K alpha) is reported as 54 nM.

Cc1cc(N2CCOc3ccc(O[C@H]4CCN(C(=O)C5COCCO5)C4)cc32)cnc1S(C)(=O)=O (stereo partly drawn) [Example B36, [1,4]Dioxan-2-yl-{(S)-3-[4-(6-methanesulfonyl-5-methyl-pyridin-3-yl)-3,4-dihydro-2H-benzo[1,4]oxazin-6-yloxy]-pyrrolidin-1-yl}-methanone] showed an IC50 (PI3K delta) of under 3 nM and an IC50 (PI3K alpha) of 801 nM.

COc1ncc(N2CCOc3ccc(O[C@H]4CCN(C(=O)C5=CC(=O)CC(C)(C)O5)C4)cc32)cc1C#N [Example C21, 5-{6-[(S)-1-(6,6-Dimethyl-4-oxo-5,6-dihydro-4H-pyran-2-carbonyl)-pyrrolidin-3-yloxy]-2,3-dihydro-benzo[1,4]oxazin-4-yl}-2-methoxy-nicotinonitrile] was tested, and the IC50 (PI3K delta) was 28 nM and the IC50 (PI3K alpha) was 698 nM.

For O=C(C1CCOCC1)N1CC[C@H](Oc2ccc3c(c2)N(c2ccc(C(F)(F)F)nc2)CCO3)C1 [Example A42, (Tetrahydro-pyran-4-yl)-{(S)-3-[4-(6-trifluoromethyl-pyridin-3-yl)-3,4-dihydro-2H-benzo[1,4]oxazin-6-yloxy]-pyrrolidin-1-yl}-methanone], the IC50 (PI3K delta) was 30 nM and the IC50 (PI3K alpha) was 1140 nM.

Cc1cc(N2CCOc3cnc(O[C@H]4CCN(C(=O)C5CC5)C4)cc32)cnc1OC(F)F [Example E11, Cyclopropyl-{(S)-3-[1-(6-difluoromethoxy-5-methyl-pyridin-3-yl)-2,3-dihydro-1H-pyrido[3,4-b][1,4]oxazin-7-yloxy]-pyrrolidin-1-yl}-methanone] was tested, and the IC50 (PI3K delta) was under 3 nM and the IC50 (PI3K alpha) was 377 nM.

COc1ncc(N2CCOc3ccc(O[C@H]4CCN(C(=O)C5CCS(=O)(=O)CC5)C4)cc32)cc1C(F)F [Example B119, {(S)-3-[4-(5-Difluoromethyl-6-methoxy-pyridin-3-yl)-3,4-dihydro-2H-benzo[1,4]oxazin-6-yloxy]-pyrrolidin-1-yl}-(1,1-dioxo-hexahydro-6-thiopyran-4-yl)-methanone] showed an IC50 (PI3K delta) of 6 nM and an IC50 (PI3K alpha) of 124 nM.

Cc1cc(N2CCOc3ccc(O[C@H]4CCN(C(=O)C5CCOC5)C4)cc32)cnc1S(C)(=O)=O (stereo partly drawn) [Example B31, {(S)-3-[4-(6-Methanesulfonyl-5-methyl-pyridin-3-yl)-3,4-dihydro-2H-benzo[1,4]oxazin-6-yloxy]-pyrrolidin-1-yl}-(tetrahydro-furan-3-yl)-methanone] showed an IC50 (PI3K delta) of 3 nM and an IC50 (PI3K alpha) of 977 nM.

COc1ncc(N2CCOc3ccc(O[C@H]4CCN(CC5CCN(C)CC5)C4)cc32)cc1C#N [P, 2-Methoxy-5-{6-[(S)-1-(1-methyl-piperidin-4-ylmethyl)-pyrrolidin-3-yloxy]-2,3-dihydro-benzo[1,4]oxazin-4-yl}-nicotinonitrile] was tested, and the IC50 (PI3K delta) was 72 nM and the IC50 (PI3K alpha) was 954 nM.
